Source: PubChem BioAssay (NCI)
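Briefly, cells in 96-well plates were exposed to five compound concentrations for 48 h, and endpoints were estimated by linear interpolation. Abbreviation: GI50, concentration required for 50% inhibition of growth. TGI: total growth inhibition.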

Assays:
Assay in all cases: NCI anticancer screen, dose series, 48 h
786-0 renal = test system: 786-0 renal
A498 renal = test system: A498 renal
A549 NSCLC = test system: A549 NSCLC
ACHN renal = test system: ACHN renal
BT-549 breast = test system: BT-549 breast
CAKI-1 renal = test system: CAKI-1 renal
CCRF-CEM leukemia = test system: CCRF-CEM leukemia
COLO 205 colon = test system: COLO 205 colon
DU-145 prostate = test system: DU-145 prostate
EKVX NSCLC = test system: EKVX NSCLC
HCC-2998 colon = test system: HCC-2998 colon
HCT-116 colon = test system: HCT-116 colon
HCT-15 colon = test system: HCT-15 colon
HL-60(TB) leukemia = test system: HL-60(TB) leukemia
HOP-62 NSCLC = test system: HOP-62 NSCLC
HOP-92 NSCLC = test system: HOP-92 NSCLC
HS 578T breast = test system: HS 578T breast
HT29 colon = test system: HT29 colon
IGROV1 ovarian = test system: IGROV1 ovarian
K-562 leukemia = test system: K-562 leukemia
LOX IMVI melanoma = test system: LOX IMVI melanoma
M14 melanoma = test system: M14 melanoma
MALME-3M melanoma = test system: MALME-3M melanoma
MCF7 breast = test system: MCF7 breast
MDA-MB-231 breast = test system: MDA-MB-231 breast
MDA-MB-435 = test system: MDA-MB-435
MOLT-4 leukemia = test system: MOLT-4 leukemia
NCI-H23 lung = test system: NCI-H23 lung
NCI-H460 lung = test system: NCI-H460 lung
NCI-H522 lung = test system: NCI-H522 lung
NCI/ADR-RES ovarian = test system: NCI/ADR-RES ovarian
OVCAR-3 ovarian = test system: OVCAR-3 ovarian
OVCAR-4 ovarian = test system: OVCAR-4 ovarian
OVCAR-5 ovarian = test system: OVCAR-5 ovarian
OVCAR-8 ovarian = test system: OVCAR-8 ovarian
PC-3 prostate = test system: PC-3 prostate
RPMI-8226 leukemia = test system: RPMI-8226 leukemia
RXF 393 renal = test system: RXF 393 renal
SF-268 CNS = test system: SF-268 CNS
SF-295 CNS = test system: SF-295 CNS
SF-539 CNS = test system: SF-539 CNS
SK-MEL-2 melanoma = test system: SK-MEL-2 melanoma
SK-MEL-28 melanoma = test system: SK-MEL-28 melanoma
SK-MEL-5 melanoma = test system: SK-MEL-5 melanoma
SK-OV-3 ovarian = test system: SK-OV-3 ovarian
SN12C renal = test system: SN12C renal
SNB-19 CNS = test system: SNB-19 CNS
SNB-75 CNS = test system: SNB-75 CNS
SW-620 colon = test system: SW-620 colon
TK-10 renal = test system: TK-10 renal
U251 CNS = test system: U251 CNS
UACC-257 melanoma = test system: UACC-257 melanoma
UACC-62 melanoma = test system: UACC-62 melanoma
UO-31 renal = test system: UO-31 renal

CC/C=C\C/C=C\C[C@H]1C/C=C2/C(=O)C=C[C@@H]2C/C=C\CCC(=O)O1
GI50 (786-0 renal): 1400 nM | TGI (786-0 renal): 4.97 µM | GI50 (A498 renal): 5.38 µM | TGI (A498 renal): 10.2 µM | GI50 (A549 NSCLC): 1220 nM | TGI (A549 NSCLC): 10.9 µM | GI50 (ACHN renal): 727 nM | TGI (ACHN renal): 1490 nM | GI50 (BT-549 breast): 1100 nM | TGI (BT-549 breast): 3.61 µM | GI50 (CAKI-1 renal): 1290 nM | TGI (CAKI-1 renal): 6.35 µM | GI50 (CCRF-CEM leukemia): 1130 nM | TGI (CCRF-CEM leukemia): 7.05 µM | GI50 (COLO 205 colon): 1040 nM | TGI (COLO 205 colon): 2820 nM | GI50 (DU-145 prostate): 1190 nM | TGI (DU-145 prostate): 5.04 µM | GI50 (EKVX NSCLC): 1510 nM | TGI (EKVX NSCLC): 8.3 µM | GI50 (HCC-2998 colon): 871 nM | TGI (HCC-2998 colon): 2320 nM | GI50 (HCT-116 colon): 634 nM | TGI (HCT-116 colon): 1470 nM | GI50 (HCT-15 colon): 735 nM | TGI (HCT-15 colon): 2150 nM | GI50 (HL-60(TB) leukemia): 1220 nM | TGI (HL-60(TB) leukemia): 3.14 µM | GI50 (HOP-62 NSCLC): 1180 nM | TGI (HOP-62 NSCLC): 4.65 µM | GI50 (HOP-92 NSCLC): 3.93 µM | TGI (HOP-92 NSCLC): 10.4 µM | GI50 (HS 578T breast): 6.08 µM | TGI (HS 578T breast): 33.2 µM | GI50 (HT29 colon): 828 nM | TGI (HT29 colon): 2040 nM | GI50 (IGROV1 ovarian): 1570 nM | TGI (IGROV1 ovarian): 5.9 µM | GI50 (K-562 leukemia): 1170 nM | TGI (K-562 leukemia): 9.1 µM | GI50 (LOX IMVI melanoma): 563 nM | TGI (LOX IMVI melanoma): 1110 nM | GI50 (M14 melanoma): 1020 nM | TGI (M14 melanoma): 4.61 µM | GI50 (MALME-3M melanoma): 1960 nM | TGI (MALME-3M melanoma): 8.04 µM | GI50 (MCF7 breast): 936 nM | TGI (MCF7 breast): 7.51 µM | GI50 (MDA-MB-231 breast): 1070 nM | TGI (MDA-MB-231 breast): 6.03 µM | GI50 (MDA-MB-435): 912 nM | TGI (MDA-MB-435): 2750 nM | GI50 (MOLT-4 leukemia): 976 nM | TGI (MOLT-4 leukemia): 4.37 µM | GI50 (NCI-H23 lung): 793 nM | TGI (NCI-H23 lung): 2790 nM | GI50 (NCI-H460 lung): 1460 nM | TGI (NCI-H460 lung): 16.3 µM | GI50 (NCI-H522 lung): 524 nM | TGI (NCI-H522 lung): 1420 nM | GI50 (NCI/ADR-RES ovarian): 746 nM | TGI (NCI/ADR-RES ovarian): 1910 nM | GI50 (OVCAR-3 ovarian): 1080 nM | TGI (OVCAR-3 ovarian): 3.52 µM | GI50 (OVCAR-4 ovarian): 1320 nM | TGI (OVCAR-4 ovarian): 5.66 µM | GI50 (OVCAR-5 ovarian): 1350 nM | TGI (OVCAR-5 ovarian): 4.95 µM | GI50 (OVCAR-8 ovarian): 1140 nM | TGI (OVCAR-8 ovarian): 4.19 µM | GI50 (PC-3 prostate): 1180 nM | TGI (PC-3 prostate): 4.36 µM | GI50 (RPMI-8226 leukemia): 847 nM | TGI (RPMI-8226 leukemia): 2430 nM | GI50 (RXF 393 renal): 686 nM | TGI (RXF 393 renal): 1560 nM | GI50 (SF-268 CNS): 1540 nM | TGI (SF-268 CNS): 9.1 µM | GI50 (SF-295 CNS): 1830 nM | TGI (SF-295 CNS): 6.86 µM | GI50 (SF-539 CNS): 995 nM | TGI (SF-539 CNS): 3.46 µM | GI50 (SK-MEL-2 melanoma): 871 nM | TGI (SK-MEL-2 melanoma): 2420 nM | GI50 (SK-MEL-28 melanoma): 1020 nM | TGI (SK-MEL-28 melanoma): 3.14 µM | GI50 (SK-MEL-5 melanoma): 776 nM | TGI (SK-MEL-5 melanoma): 2100 nM | GI50 (SK-OV-3 ovarian): 7.18 µM | TGI (SK-OV-3 ovarian): 20.1 µM | GI50 (SN12C renal): 1120 nM | TGI (SN12C renal): 9.69 µM | GI50 (SNB-19 CNS): 3.15 µM | TGI (SNB-19 CNS): 8.45 µM | GI50 (SNB-75 CNS): 1400 nM | TGI (SNB-75 CNS): 6.92 µM | GI50 (SW-620 colon): 1650 nM | TGI (SW-620 colon): 6.04 µM | GI50 (TK-10 renal): 1260 nM | TGI (TK-10 renal): 3.43 µM | GI50 (U251 CNS): 1160 nM | TGI (U251 CNS): 3.69 µM | GI50 (UACC-257 melanoma): 1850 nM | TGI (UACC-257 melanoma): 7.82 µM | GI50 (UACC-62 melanoma): 767 nM | TGI (UACC-62 melanoma): 2400 nM | GI50 (UO-31 renal): 1360 nM | TGI (UO-31 renal): 4.94 µM
